Earlier results in patent publication US20220118118A1, “BENZAZEPIN-L,7-DIOL-DERIVED RADIOLABELED LIGANDS WITH HIGH IN VIVO NMDA SPECIFICITY” (ETH ZURICH, priority 2018, published 2022).

Conditions: Garrigou-Cadenne et al. 1995

brain/plasma ratio: about 20
SMILES: OC(CN1CCC(Cc2ccc(F)cc2)CC1)c1ccc(Cl)cc1 (stereo not shown) [eliprodil]
